Source: US20160046604A1, “HETEROARYL SUBSTITUTED INDAZOLES” (BAYER PHARMA AKTIENGESELLSCHAFT, priority 2013, published 2016)
Like-named read-outs stand apart in the source and are kept apart here.

Key:
[1] = target: T1, catalytic domain of human Bub1 (amino acids 704-1085) (Homo sapiens, UniProt O43683); test: Bub1 kinase assay (TR-FRET); type: biochemical
T1 construct: catalytic domain of human Bub1 (amino acids 704-1085); His6 (N); made in house; host or cells: Hi5 insect cells
Experimental: To this end, 100-fold concentrated compound solutions (in DMSO) were previously prepared by serial dilution (1:3.4) of 2 mM stocks in a clear low volume 384-well source microtiter plate (Greiner Bio-One, Frickenhausen, Germany), from which 50 nL of compounds were transferred into a black low volume test microtiter plate from the same supplier. […] The resulting mixture (5 μL final volume) was incubated at 22° C. during 60 min., and the reaction was stopped by the addition of 5 μL of an aqueous EDTA-solution (50 mM EDTA, in 100 mM HEPES pH 7.5 and 0.2% (w/v) bovine serum albumin) which also contained the TR-FRET detection reagents (0.2 μM streptavidin-XL665 [Cisbio Bioassays, Codolet, France] and 1 nM anti-phoshoSerine antibody [Merck Millipore, cat. #35-001] and 0.4 nM LANCE EU-W1024 labeled anti-mouse IgG antibody [Perkin-Elmer, product no. AD0077, alternatively a Terbium-cryptate-labeled anti-mouse IgG antibody from Cisbio Bioassays can be used]). The stopped reaction mixture was further incubated 1 h at 22° C. in order to allow the formation of complexes between peptides and detection reagents. Subsequently, the amount of product was evaluated by measurement of the resonance energy transfer from the Eu-chelate-antibody complex recognizing the Phosphoserine residue to the streptavidin-XL665 bound to the biotin moiety of the peptide. […] IC50 values were calculated by fitting the normalized inhibition data to a 4-parameter logistic equation (Minimum, Maximum, IC50, Hill; Y=Max+(Min−Max)/(1+(X/IC50)Hill)).

[2] = test system: HeLa human cervical tumor cells; test: Proliferation assay (HeLa cell line); settings: 96 h, read-out: Biological Assay 2: Proliferation assay (HeLa cell line) median IC50;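 note: crystal violet staining, absorbance at 595 nm, 0.001–10 µM test range, 4-day exposure, 0% is cell number at dosing and 100% untreated growth, IC50 from 4-parameter fit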
Experimental: Cultivated HeLa human cervical tumor cells (cells were ordered from ATCC CCL-2) were plated at a density of 3000 cells/well in a 96-well multititer plates in 200 microL DMEM/HAMS F12 culture medium (Biochrom F4815) supplemented with 10% fetal calf serum. After 24 hours, the cells of one plate (zero-point plate) were stained with crystal violet (see below), while the medium of the other plates was replaced by fresh culture medium (200 microL) containing the test substances in various concentrations (0 microM, as well as in the range of 0.001-10 microM; the final concentration of the solvent dimethyl sulfoxide was 0.5%). The cells were incubated for 4 days in the presence of test substances. Cell proliferation was determined by staining the cells with crystal violet: the cells were fixed by adding 20 microL/measuring point of an 11% glutaric aldehyde solution for 15 minutes at room temperature. After three washing cycles of the fixed cells with water, the plates were dried at room temperature. The cells were stained by adding 100 microL/measuring point of a 0.1% crystal violet solution (pH 3.0). After three washing cycles of the stained cells with water, the plates were dried at room temperature. The dye was dissolved by adding 100 microL/measuring point of a 10% acetic acid solution. Absorption was determined by photometry at a wavelength of 595 nm. The change of cell number, in percent, was calculated by normalization of the measured values to the absorption values of the zero-point plate (=0%) and the absorption of the untreated (0 microM) cells (=100%). The IC50 values were determined by means of a 4 parameter fit.

[3] = TR-FRET, recombinant catalytic domain of human Bub1, ATP 10 μM, peptide substrate 1 μM, 60 min at 22° C., read-out: Biological Assay 1: Bub1 kinase assay median IC50

T1 sequence (O43683 704-1085): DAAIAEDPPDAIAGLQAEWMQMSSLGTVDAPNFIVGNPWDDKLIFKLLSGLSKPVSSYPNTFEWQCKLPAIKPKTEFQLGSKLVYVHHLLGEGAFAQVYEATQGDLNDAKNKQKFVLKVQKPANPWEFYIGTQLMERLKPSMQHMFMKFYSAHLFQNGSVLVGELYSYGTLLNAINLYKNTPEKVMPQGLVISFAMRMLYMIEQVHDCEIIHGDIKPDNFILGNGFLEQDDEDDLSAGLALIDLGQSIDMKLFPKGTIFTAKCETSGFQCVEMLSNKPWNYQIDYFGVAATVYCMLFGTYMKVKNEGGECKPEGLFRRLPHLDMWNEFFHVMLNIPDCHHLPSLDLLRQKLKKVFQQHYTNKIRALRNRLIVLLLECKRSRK

| SMILES | IC50 [1, 3] [nM] | IC50 [2] [nM] | IC50 [1] [nM] |
| --- | --- | --- | --- |
| CNC(=O)c1nc(Cn2nc(-c3ncc(OC)c(Nc4ccncc4)n3)c3ccccc32)no1 [Example 2-2-5, 3-({3-[5-methoxy-4-(pyridin-4-ylamino)pyrimidin-2-yl]-1H-indazol-1-yl}methyl)-N-methyl-1,2,4-oxadiazole-5-carboxamide] | 540 | > 10000 |  |
| COc1cnc(-c2nn(Cc3c(Cl)ccnc3Cl)c3ccccc23)nc1Nc1ccncc1 [Example 2-1-1, 2-{1-[(2,4-dichloropyridin-3-yl)methyl]-1H-indazol-3-yl}-5-methoxy-N-(pyridin-4-yl)pyrimidin-4-amine] |  | 2600 | 8.4 |
| COc1cnc(-c2nn(Cc3c(C)nnn3C(F)F)c3ccccc23)nc1N(Cc1c(C)nnn1C(F)F)c1ccncc1 [Example 2-1-9, N-{[1-(difluoromethyl)-4-methyl-1H-1,2,3-triazol-5-yl]methyl}-2-(1-{[1-(difluoromethyl)-4-methyl-1H-1,2,3-triazol-5-yl]methyl}-1H-indazol-3-yl)-5-methoxy-N-(pyridin-4-yl)pyrimidin-4-amine] | 790 |  |  |
| COc1cnc(-c2nn(Cc3ccc(C(F)(F)F)nc3C)c3ccccc23)nc1Nc1ccncc1 [Example 2-1-5, 5-methoxy-2-(1-{[2-methyl-6-(trifluoromethyl)pyridin-3-yl]methyl}-1H-indazol-3-yl)-N-(pyridin-4-yl)pyrimidin-4-amine] |  | 7100 | 58 |
| COc1cnc(-c2nn(Cc3cscn3)c3ccccc23)nc1Nc1ccncc1C(N)=O [Example 2-2-11, 4-({5-methoxy-2-[1-(1,3-thiazol-4-ylmethyl)-1H-indazol-3-yl]pyrimidin-4-yl}amino)nicotinamide] |  | 8800 | 8 |
| CNC(=O)c1cnccc1Nc1nc(-c2nn(Cc3nc(COC)no3)c3ccccc23)ncc1OC [Example 2-2-8, 4-{[5-methoxy-2-(1-{[3-(methoxymethyl)-1,2,4-oxadiazol-5-yl]methyl}-1H-indazol-3-yl)pyrimidin-4-yl]amino}-N-methylnicotinamide] | 17 | > 10000 |  |
| COc1cnc(-c2nn(Cc3cc(=O)[nH]c(=O)[nH]3)c3ccccc23)nc1Nc1ccncc1 [Example 2-2-7, 6-({3-[5-methoxy-4-(pyridin-4-ylamino)pyrimidin-2-yl]-1H-indazol-1-yl}methyl)pyrimidine-2,4(1H,3H)-dione] |  | > 10000 | 3100 |
| COCc1noc(Cn2nc(-c3ncc(OC)c(Nc4ccncc4C(N)=O)n3)c3ccccc32)n1 [Example 2-2-10, 4-{[5-methoxy-2-(1-{[3-(methoxymethyl)-1,2,4-oxadiazol-5-yl]methyl}-1H-indazol-3-yl)pyrimidin-4-yl]amino}nicotinamide] |  | > 10000 | 4.8 |
| COc1cnc(-c2nn(Cc3c(Cl)cnn3C)c3ccccc23)nc1Nc1ccncc1 [Example 2-2-1, 2-{1-[(4-chloro-1-methyl-1H-pyrazol-5-yl)methyl]-1H-indazol-3-yl}-5-methoxy-N-(pyridin-4-yl)pyrimidin-4-amine] | 8.9 | > 10000 |  |
| Cc1noc(C)c1Cn1nc(-c2nc(Nc3ccncc3)cc(Nc3ccncc3)n2)c2ccccc21 [Example 2-3-4, 2-{1-[(3,5-dimethyl-1,2-oxazol-4-yl)methyl]-1H-indazol-3-yl}-N,N′-di(pyridin-4-yl)pyrimidine-4,6-diamine] |  | 4000 | 330 |
| COc1cnc(-c2nn(Cc3c(C)noc3C)c3ccccc23)nc1Nc1ccncc1 [Example 2-1-3, 2-{1-[(3,5-dimethyl-1,2-oxazol-4-yl)methyl]-1H-indazol-3-yl}-5-methoxy-N-(pyridin-4-yl)pyrimidin-4-amine] | 30 | > 10000 |  |
| CCOC(=O)c1cnccc1Nc1cc(N)nc(-c2nn(Cc3c(C)noc3C)c3ccccc23)n1 [Example 2-3-1, ethyl 4-[(6-amino-2-{1-[(3,5-dimethyl-1,2-oxazol-4-yl)methyl]-1H-indazol-3-yl}pyrimidin-4-yl)amino]pyridine-3-carboxylate] |  | > 10000 | 70 |
| CNC(=O)c1cnccc1Nc1nc(-c2nn(Cc3cc(C(C)C)no3)c3ccccc23)ncc1OC [Example 2-2-12, 4-[(2-{1-[(3-isopropyl-1,2-oxazol-5-yl)methyl]-1H-indazol-3-yl}-5-methoxypyrimidin-4-yl)amino]-N-methylnicotinamide] |  | > 10000 | 5.7 |
| COc1cnc(-c2nn(Cc3cc(C(C)C)no3)c3ccccc23)nc1Nc1ccncc1C(N)=O [Example 2-2-9, 4-[(2-{1-[(3-isopropyl-1,2-oxazol-5-yl)methyl]-1H-indazol-3-yl}-5-methoxypyrimidin-4-yl)amino]nicotinamide] |  | 3900 | 6.9 |
| COc1cnc(-c2nn(Cc3nsc(N)n3)c3ccccc23)nc1Nc1ccncc1 [Example 2-2-3, 2-{1-[(5-amino-1,2,4-thiadiazol-3-yl)methyl]-1H-indazol-3-yl}-5-methoxy-N-(pyridin-4-yl)pyrimidin-4-amine] | 54 | > 10000 |  |
| COc1cnc(-c2nn(Cc3cn4cccnc4n3)c3ccccc23)nc1Nc1ccncc1 [Example 2-2-6, 2-[1-(imidazo[1,2-a]pyrimidin-2-ylmethyl)-1H-indazol-3-yl]-5-methoxy-N-(pyridin-4-yl)pyrimidin-4-amine] | 1600 |  |  |
| Cc1noc(C)c1Cn1nc(-c2nc(N)cc(Nc3ccncn3)n2)c2ccccc21 [Example 2-3-3, 2-{1-[(3,5-dimethyl-1,2-oxazol-4-yl)methyl]-1H-indazol-3-yl}-N-(pyrimidin-4-yl)pyrimidine-4,6-diamine] |  | 650 | 31 |
| COc1cnc(-c2nn(Cc3nnc(C)o3)c3ccccc23)nc1Nc1ccncc1 [Example 2-2-14, 5-methoxy-2-{1-[(5-methyl-1,3,4-oxadiazol-2-yl)methyl]-1H-indazol-3-yl}-N-(pyridin-4-yl)pyrimidin-4-amine] | 870 | > 10000 |  |
| COc1cnc(-c2nn(Cc3nnc(C)o3)c3ccccc23)nc1Nc1ccncc1C(N)=O [Example 2-2-13, 4-[(5-methoxy-2-{1-[(5-methyl-1,3,4-oxadiazol-2-yl)methyl]-1H-indazol-3-yl}pyrimidin-4-yl)amino]nicotinamide] |  | > 10000 | 22 |
| COc1cnc(-c2nn(Cc3nn(C)cc3Cl)c3ccccc23)nc1Nc1ccncc1 [Example 2-2-2, 2-{1-[(4-chloro-1-methyl-1H-pyrazol-3-yl)methyl]-1H-indazol-3-yl}-5-methoxy-N-(pyridin-4-yl)pyrimidin-4-amine] | 46 | 4400 |  |
| COc1cnc(-c2nn(Cc3c(C)nnn3C(F)F)c3ccccc23)nc1Nc1ccncc1 [Example 2-1-6, 2-(1-{[1-(difluoromethyl)-4-methyl-1H-1,2,3-triazol-5-yl]methyl}-1H-indazol-3-yl)-5-methoxy-N-(pyridin-4-yl)pyrimidin-4-amine] | 150 |  |  |
| Cc1noc(C)c1Cn1nc(-c2nc(N)cc(Nc3ccncc3)n2)c2ccccc21 [Example 2-3-2, 2-{1-[(3,5-dimethyl-1,2-oxazol-4-yl)methyl]-1H-indazol-3-yl}-N-(pyridin-4-yl)pyrimidine-4,6-diamine] |  | 6700 | 16 |
| COc1cnc(-c2nn(Cc3ncc(F)cc3F)c3ccccc23)nc1Nc1ccncc1 [Example 2-1-2, 2-{1-[(3,5-difluoropyridin-2-yl)methyl]-1H-indazol-3-yl}-5-methoxy-N-(pyridin-4-yl)pyrimidin-4-amine] |  | > 10000 | 9 |
| CNC(=O)c1cnccc1Nc1nc(-c2nn(Cc3nnc(C)o3)c3ccccc23)ncc1OC [Example 2-2-15, 4-[(5-methoxy-2-{1-[(5-methyl-1,3,4-oxadiazol-2-yl)methyl]-1H-indazol-3-yl}pyrimidin-4-yl)amino]-N-methylnicotinamide] |  |  | 99 |
| Cc1noc(C)c1Cn1nc(-c2nc(N)cc(Nc3ccncc3C(=O)NCCO)n2)c2ccccc21 [Example 2-4-1, 4-[(6-amino-2-{1-[(3,5-dimethyl-1,2-oxazol-4-yl)methyl]-1H-indazol-3-yl}pyrimidin-4-yl)amino]-N-(2-hydroxyethyl)nicotinamide] |  |  | 34 |
| COc1cnc(-c2nn(Cc3c(C(F)F)nn(C)c3OCC(F)(F)F)c3ccccc23)nc1Nc1ccncc1 [Example 2-1-7, 2-(1-{[3-(difluoromethyl)-1-methyl-5-(2,2,2-trifluoroethoxy)-1H-pyrazol-4-yl]methyl}-1H-indazol-3-yl)-5-methoxy-N-(pyridin-4-yl)pyrimidin-4-amine] |  |  | 450 |
| COc1cnc(-c2nn(Cc3c(C(F)(F)F)nn(C)c3C(F)F)c3ccccc23)nc1Nc1ccncc1 [Example 2-1-10, 2-(1-{[5-(difluoromethyl)-1-methyl-3-(trifluoromethyl)-1H-pyrazol-4-yl]methyl}-1H-indazol-3-yl)-5-methoxy-N-(pyridin-4-yl)pyrimidin-4-amine] |  |  | 3200 |
